Where two headings read alike, the source gives them in different places.
Columns and labels:
PvG6PD = PvG6PD (Plasmodium vivax, UniProt A5K3M1); test: PvG6PD enzyme inhibition assay (NADPH formation, absorbance 340 nm / fluorescence); type: biochemical; settings: for IC50: read-out: IC50 on PvG6PD
Protocol: The G6PD activity of PfGluPho variants was measured spectrophotometrically as described for the wt enzyme. Kinetic characterization of PvG6PD was performed using the same assay system at an Evolution 300 spectrophotometer (Thermo Scientific, Dreieich, Germany). In brief, the initial reduction of NADP^+ to NADPH by PvG6PD was monitored by measuring the absorbance at 340 nm. The 500 µL reaction mixture contained 200 µM NADP^+ and varying concentrations of PvG6PD in an assay buffer of 100 mM Tris–HCl, pH 8.0, 10 mM MgCl2, and 0.5 mM EDTA at 25 °C. The reaction was started by adding 800 µM G6P. The KM for NADP^+ was determined by titrating NADP^+ from 2 to 400 µM at 800 µM G6P; the KM for G6P was measured accordingly by titrating G6P from 2 to 1200 µM at 200 µM NADP^+. KM values were calculated using GraphPad Prism. Since the KM for G6P was considerably higher than the value measured for PfGluPho [14], a concentration of 800 µM G6P was defined as substrate saturation for PvG6PD.
To identify potential inhibitors of PvG6PD, compounds with already known effects on PfGluPho (ellagic acid and derivatives, ML304) were tested. Additionally, several compound libraries of the Helmholtz Center for Infection Research, Brunswick, were screened against PfGluPho using the high-throughput-compatible assay systems described in Preuss et al.. […] Based on structure-activity relationship studies, a set of new potential G6PD inhibitors (Fig. 8) was then synthesized and assessed. First, the IC50 values of the compounds were determined, followed by mechanistic characterization of the mode of action. To test for selectivity of the compounds, the IC50 values of the compounds on PvG6PD, PfGluPho, and hG6PD were determined in parallel.
All measurements were performed in 96-well plates, half area (Greiner Bio-One, Frickenhausen, Germany) using a Tecan Infinite M200 plate reader (Maennedorf, Switzerland). The compounds were dissolved in 100% DMSO and afterwards diluted in assay buffer to the required concentrations. Different compound concentrations were added to a mixture of enzyme and NADP^+ in assay buffer. Concentrations of substrates differed depending on the enzyme; an overview is given in the Additional file 4. The reaction was started by adding G6P, and the increase of NADPH was monitored by measuring the absorbance at 340 nm. To increase the sensitivity of the assay, some measurements were reproduced, detecting the fluorescence of NADPH at ex340/em460. […] A negative control containing no compound was defined as 0% inhibition; a positive control lacking the substrate G6P was defined as 100% inhibition. For evaluations using GraphPad Prism and Microsoft Excel, only a linear increase in absorbance/fluorescence was considered. For the mechanistic characterization of the compounds, either NADP^+ or G6P were titrated at different compound concentrations around the IC50, while keeping the second substrate in saturation. The initial slope was plotted as Michaelis–Menten curves and Lineweaver–Burk plots using GraphPad Prism; KM values and Vmax were calculated with GraphPad Prism software.

[1] = tested on: P. falciparum 3D7[hGrx1-roGFP2] cytosolic glutathione-dependent redox potential; test: Cytosolic glutathione redox sensor hGrx1-roGFP2, confocal live cell imaging (CLSM); type: cell-based, Plasmodium falciparum; settings: for Oxidation of the hGrx1-roGFP2 sensor: comparable to 1 mM DIA
Protocol: A Leica confocal system TCS SP5 inverted microscope equipped with the objective HCX PL APO 63.0 × 1.30 GLYC 37 °C UV connected to a 37 °C temperature chamber was used. The argon laser power was set to 20%; scanning was performed at 400 Hz frequency and at a 512 × 512 pixel resolution. The smart gain and smart offset were 950 V and −0.9%, respectively. With a sequential scan, the hGrx1–roGFP2 probe was excited at 405 nm and at 488 nm and emission was detected at 500–550 nm. Laser intensity was adjusted to match the full dynamic range of the probe to the dynamic range of the detector (405 nm: 10%, 488 nm: 4%). […] The Leica LAS AF Lite software for fluorescence analysis was used. The 405/488 nm ratio was calculated. The graphs were plotted using the GraphPad Prism 5 software (San Diego, CA, USA). For live cell imaging, only parasites showing fluorescent signals at both 405 and 488 nm excitation and an intact host cell were chosen.
The effect of ML304 and the anti-malarial drugs ATS and CQ as reference drugs on P. falciparum were investigated in 4 h and 24 h incubation experiments. […] For 4 h experiments, trophozoite stage parasites (26–30 h) of 3D7^[hGrx1–roGFP2] and NF54^[hGrx1–roGFP2] (6–8% parasitaemia) were magnetically enriched (Miltenyi Biotec, Germany), counted by using a Neubauer hemocytometer (Brand GmbH, Germany), and returned to cell culture (at 2.0 × 10^4 trophozoites μL^−1) for at least 1 h to recover. 1.0 × 10^6 cells in 100 μL cell culture medium were placed into LoBind tubes (Eppendorf, Hamburg, Germany) for 4 h incubation experiments. The parasites were treated with ML304 at 1 μM, 50 μM, and 100 μM, or with the anti-malarial drugs ATS and CQ at approximately 50 × EC50 for 4 h under cell culture conditions. Subsequently, free thiol groups were blocked with 2 mM N-ethylmaleimide (NEM) for 15 min at 37 °C. For 24 h experiments, a 5 mL culture (5% haematocrit, 6–8% parasitaemia) of ring stage parasites (6–10 h post invasion) was treated with ML304 at 1 μM, 5 μM, and 10 μΜ, or the anti-malarial drugs ATS and CQ at approximately 4 × EC50. Prior to enrichment, cysteines were blocked with 2 mM NEM for 15 min at 37 °C. For 4 h and 24 h experiments, cells were washed after incubation and resuspended in Ringer’s solution (122.5 mM NaCl, 5.4 mM KCl, 1.2 mM CaCl2, 0.8 mM MgCl2, 11 mM D-glucose, 25 mM HEPES, 1 mM NaH2PO4, pH 7.4). 50 μL of cells (1.0 × 10^6 cells 50^−1 μL^−1) were seeded onto poly-L-lysine-coated μ-Slides 18 well (flat) (Ibidi, Martinsried, Germany) and measured using CLSM (confocal laser scanning microscopy) with excitation wavelengths at 405 nm and 488 nm. […] Each experiment was carried out three times. Between 10 and 20 microscopy images were taken each time, resulting in at least 30 experimental values per concentration and incubation time. The obtained ratio values were normalized to the control value, which was set to 100. All experiments were carried out within 6 weeks after the appearance of transfectants. Mean and standard error of the mean (SEM) are shown. A one-way ANOVA test with 95% confidence intervals with the Dunnett’s multiple comparison test (GraphPad Prism 5.0) was applied for statistical analysis of significance (*p < 0.05; **p < 0.01; ***p < 0.001).

Chain of PvG6PD (A5K3M1 entry or part of it): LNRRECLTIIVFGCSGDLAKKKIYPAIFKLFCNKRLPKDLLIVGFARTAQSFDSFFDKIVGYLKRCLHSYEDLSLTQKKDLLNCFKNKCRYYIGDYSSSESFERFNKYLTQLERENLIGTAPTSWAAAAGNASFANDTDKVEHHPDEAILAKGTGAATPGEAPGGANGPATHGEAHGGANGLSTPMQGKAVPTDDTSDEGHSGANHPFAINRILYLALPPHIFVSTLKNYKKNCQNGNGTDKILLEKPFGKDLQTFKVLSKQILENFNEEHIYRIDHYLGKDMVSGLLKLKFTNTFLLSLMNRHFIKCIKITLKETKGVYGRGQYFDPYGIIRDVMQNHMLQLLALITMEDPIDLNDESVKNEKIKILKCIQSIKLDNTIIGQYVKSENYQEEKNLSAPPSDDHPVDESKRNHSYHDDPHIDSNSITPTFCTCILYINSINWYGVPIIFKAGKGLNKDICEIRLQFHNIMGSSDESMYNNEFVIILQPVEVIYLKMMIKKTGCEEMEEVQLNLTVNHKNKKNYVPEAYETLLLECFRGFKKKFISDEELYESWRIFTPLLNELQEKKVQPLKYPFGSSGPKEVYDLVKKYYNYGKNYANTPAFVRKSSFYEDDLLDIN

CCN1CCC[C@@H]1CNC(=O)c1ccc2c(c1)NC(=O)c1cccc(C)c1S2 [ML304]
Type of inhibition of PvG6PD towards G6P (PvG6PD; G6P titrated): competitive inhibitor | Type of inhibition of PvG6PD towards NADP+ (PvG6PD; NADP+ titrated): mixed type inhibitor | Ki (PvG6PD; competitive towards G6P, read-out: Ki on PvG6PD towards G6P): 0.7 ± 0.3 µM | Ki (PvG6PD; mixed type towards NADP+, read-out: Ki on PvG6PD towards NADP+): 16.3 ± 8.8 µM | IC50 (PvG6PD; substrate saturation (800 µM G6P, 200 µM NADP+)): 15.3 ± 0.9 µM | IC50 (PvG6PD; substrates close to KM (85 µM G6P, 15 µM NADP+)): 2.6 ± 0.8 µM | Oxidation of the hGrx1-roGFP2 sensor ([1]; 5 µM, 24 h incubation): completely oxidize the sensor | Oxidation of the hGrx1-roGFP2 sensor ([1]; 50 µM, 4 h incubation): completely oxidize the sensor | Effect on 405/488 nm ratio of hGrx1-roGFP2 ([1]; 4 h incubation, trophozoites, 1, 50 and 100 µM (p < 0.05 at 1 µM, p < 0.001 at 50 and 100 µM)): significant effects | Effect on 405/488 nm ratio of hGrx1-roGFP2 ([1]; 24 h incubation, ring stage (p < 0.05 at 1 µM, p < 0.001 at 50 µM and 100 µM as printed)): significantly increased

Reference: article PMC6346587, “Glucose 6-phosphate dehydrogenase 6-phosphogluconolactonase: characterization of the Plasmodium vivax enzyme and inhibitor studies” (Malaria Journal, 2019)
